In one assay the target is JAK-2 enzyme (Homo sapiens, UniProt O60674). As to the kind of experiment: JAK2 inhibition assay (radiometric 33P filter assay). The conditions noted are these: 15 μM poly(Glu)4Tyr, 12 μM ATP; read-out: JAK2 inhibition data (Ki). The assay is classed as biochemical. The method, boiled down:
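JAK-2 enzyme in 100 mM HEPES pH 7.4, 1 mM DTT, 10 mM MgCl2, 25 mM NaCl, 0.01% BSA, with final 12 μM [33P]ATP and 15 μM poly(Glu)4Tyr. Reactions ran 20 min at 25 °C and were stopped with TCA. 33P incorporation was counted after glass-fibre filtration.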

A further assay addresses T1, JAK3 (Homo sapiens, UniProt P52333).
T1 sequence (P52333 1-1124): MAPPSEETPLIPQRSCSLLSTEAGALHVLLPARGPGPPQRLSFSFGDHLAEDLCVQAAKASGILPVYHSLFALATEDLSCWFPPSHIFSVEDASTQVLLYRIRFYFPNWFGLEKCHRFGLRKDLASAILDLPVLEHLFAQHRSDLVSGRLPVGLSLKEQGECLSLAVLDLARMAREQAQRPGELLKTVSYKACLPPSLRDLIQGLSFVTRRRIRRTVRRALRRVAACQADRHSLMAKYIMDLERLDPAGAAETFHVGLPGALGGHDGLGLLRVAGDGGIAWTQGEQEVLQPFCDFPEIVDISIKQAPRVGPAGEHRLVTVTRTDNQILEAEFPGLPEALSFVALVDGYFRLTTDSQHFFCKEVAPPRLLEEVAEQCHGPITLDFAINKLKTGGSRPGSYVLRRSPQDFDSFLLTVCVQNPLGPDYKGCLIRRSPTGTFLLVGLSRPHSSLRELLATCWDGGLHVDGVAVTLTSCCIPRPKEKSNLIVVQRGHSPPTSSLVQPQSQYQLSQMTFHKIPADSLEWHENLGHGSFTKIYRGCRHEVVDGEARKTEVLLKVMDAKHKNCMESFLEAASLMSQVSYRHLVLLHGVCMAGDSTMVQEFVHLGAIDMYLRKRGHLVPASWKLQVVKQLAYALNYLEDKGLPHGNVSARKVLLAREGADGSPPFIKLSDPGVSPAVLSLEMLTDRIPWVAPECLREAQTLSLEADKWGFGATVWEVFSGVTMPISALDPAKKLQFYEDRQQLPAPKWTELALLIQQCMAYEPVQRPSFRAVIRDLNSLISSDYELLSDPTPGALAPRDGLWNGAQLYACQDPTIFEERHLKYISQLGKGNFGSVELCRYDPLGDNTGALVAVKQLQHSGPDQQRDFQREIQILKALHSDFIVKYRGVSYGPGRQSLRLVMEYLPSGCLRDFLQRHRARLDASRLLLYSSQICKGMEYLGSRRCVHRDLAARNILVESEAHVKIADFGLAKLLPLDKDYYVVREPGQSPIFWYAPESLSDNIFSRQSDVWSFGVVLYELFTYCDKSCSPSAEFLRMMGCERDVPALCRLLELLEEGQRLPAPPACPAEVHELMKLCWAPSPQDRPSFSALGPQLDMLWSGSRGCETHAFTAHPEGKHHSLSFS
As to the kind of experiment: JAK3 inhibition assay (radiometric 33P filter assay). The conditions noted are these: 1 μM poly(Glu)4Tyr, 5 μM ATP, 1 nM JAK3, 25° C.; read-out: JAK3 inhibition data (Ki). The assay is classed as biochemical. Summed up:
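Final conditions were 1 nM JAK3, 5 μM ATP (200 uCi/μmole) and 1 μM poly(Glu)4Tyr in 100 mM HEPES pH 7.4, 10 mM MgCl2, 25 mM NaCl, 1 mM DTT and 0.01% BSA. After 20 min at 25 °C the reaction was stopped with TCA. 33P incorporation was counted after glass-fibre filtration.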

As a reminder, the Ki is a measure of affinity in units of concentration, obtained from inhibition or displacement.

Some results are limits rather than exact numbers.

JAK-2 enzyme, sequence (O60674 whole entry, species assumed): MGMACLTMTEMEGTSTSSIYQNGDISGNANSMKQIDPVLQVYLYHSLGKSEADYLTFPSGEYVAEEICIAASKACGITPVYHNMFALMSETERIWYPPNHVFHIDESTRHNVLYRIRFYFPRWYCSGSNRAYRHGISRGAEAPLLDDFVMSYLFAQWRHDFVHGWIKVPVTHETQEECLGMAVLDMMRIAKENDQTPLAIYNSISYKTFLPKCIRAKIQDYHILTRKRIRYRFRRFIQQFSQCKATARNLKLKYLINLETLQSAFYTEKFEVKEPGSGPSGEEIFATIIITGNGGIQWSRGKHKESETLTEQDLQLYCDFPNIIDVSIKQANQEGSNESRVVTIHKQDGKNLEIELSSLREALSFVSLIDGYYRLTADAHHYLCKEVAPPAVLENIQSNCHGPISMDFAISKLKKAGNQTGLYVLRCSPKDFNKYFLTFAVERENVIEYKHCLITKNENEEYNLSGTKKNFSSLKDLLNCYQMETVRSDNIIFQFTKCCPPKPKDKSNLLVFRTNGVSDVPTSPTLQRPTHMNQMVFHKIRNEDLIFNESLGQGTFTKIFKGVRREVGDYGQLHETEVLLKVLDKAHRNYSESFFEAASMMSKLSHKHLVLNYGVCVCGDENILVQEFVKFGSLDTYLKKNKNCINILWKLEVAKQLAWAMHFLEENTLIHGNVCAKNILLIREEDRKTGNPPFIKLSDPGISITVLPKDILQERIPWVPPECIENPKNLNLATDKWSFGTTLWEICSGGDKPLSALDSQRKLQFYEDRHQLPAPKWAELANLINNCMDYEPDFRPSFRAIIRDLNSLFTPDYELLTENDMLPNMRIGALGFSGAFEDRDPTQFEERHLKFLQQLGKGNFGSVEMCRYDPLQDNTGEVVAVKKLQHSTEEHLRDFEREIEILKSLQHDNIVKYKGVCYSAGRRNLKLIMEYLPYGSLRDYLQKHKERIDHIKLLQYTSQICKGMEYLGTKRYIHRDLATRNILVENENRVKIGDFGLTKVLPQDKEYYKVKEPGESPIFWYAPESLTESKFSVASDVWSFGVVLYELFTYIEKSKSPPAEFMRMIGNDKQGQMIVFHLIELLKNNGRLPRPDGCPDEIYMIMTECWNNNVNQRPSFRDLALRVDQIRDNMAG

Regarding `CC(=O)N1CCCN(c2cc(-n3nc(Nc4ccc(N(C)C)cc4)nc3N)ncn2)CC1` [Compound 10], the Ki on JAK-2 enzyme and at JAK3 was less than 50 nM each time.

As for `CCOC(=O)Nc1ccc(Nc2nc(N)n(-c3ccnc(N4CCCN(C(C)=O)CC4)c3)n2)cc1` [Compound 171], the Ki at JAK-2 enzyme was 50 to 500 nM; at JAK3 it was less than 50 nM.

As for `COC1CCCC(C(=O)Nc2ccc(Nc3nc(N)n(-c4cc(N5CCCN(C(C)=O)CC5)ncn4)n3)cc2)C1` (centres unmarked) [Compound 32], the Ki on JAK-2 enzyme and at JAK3 was less than 50 nM in each case.

As for `CC(=O)N1CCCN(c2cc(-n3nc(Nc4ccc(N(C)C(=O)OC(C)(C)C)cc4)nc3N)ncn2)CC1` [Compound 115], the Ki at JAK-2 enzyme and on JAK3 was less than 50 nM each time.

On to `CC(=O)N1CCCN(c2cc(-n3nc(Nc4ccc(NC(=O)NC(C)(C)C)cc4)nc3N)ncn2)CC1` [Compound 87], for which the Ki on JAK-2 enzyme and at JAK3 was less than 50 nM each time.

Regarding `CCCOC(=O)N1CCCN(c2cc(-n3nc(Nc4ccc(N5CCN(S(=O)(=O)CC)CC5)cc4)nc3N)ccn2)CC1` [Compound 154], the Ki at JAK-2 enzyme and on JAK3 was 50 to 500 nM each time.

For `CCCOC(=O)N1CCN(c2ccc(Nc3nc(N)n(-c4ccnc(N5CCCN(C(=O)OCCC)CC5)c4)n3)cc2)CC1` [Compound 160], the Ki on JAK-2 enzyme and at JAK3 was 50 to 500 nM throughout.

Consider `CC(=O)CC(=O)N1CCCN(c2cc(-n3nc(Nc4ccc(N5CCOCC5)cc4)nc3N)ncn2)CC1` [Compound 6], for which the Ki on JAK-2 enzyme and at JAK3 was less than 50 nM each time.

For `CC(=O)N1CCCN(c2cc(-n3nc(Nc4ccc(N5CCN(C(=O)C6CCOCC6)CC5)cc4)nc3N)ncn2)CC1` [Compound 41], the Ki on JAK-2 enzyme and on JAK3 was less than 50 nM in each case.

As for `CC(=O)N1CCCN(c2cc(-n3nc(Nc4ccc(N5CCN(C(=O)CC(C)C)CC5)cc4)nc3N)ncn2)CC1` [Compound 38], the Ki on JAK-2 enzyme and on JAK3 was less than 50 nM each time.

For the molecule `CC(=O)N1[C@H](C)CN(c2cc(-n3nc(Nc4ccc(N5CCOCC5)cc4)nc3N)ncn2)C[C@@H]1C` [Compound 16], the Ki on JAK-2 enzyme and at JAK3 was less than 50 nM in each case.

Consider `CC(C)OC(=O)N1CCN(c2ccc(Nc3nc(N)n(-c4ccnc(N5CCCN(S(C)(=O)=O)CC5)c4)n3)cc2)CC1` [Compound 168], for which the Ki on JAK-2 enzyme and on JAK3 was 50 to 500 nM in each case.

With `CC(=O)N1[C@H](C)CN(c2cc(-n3nc(Nc4ccc(NC(=O)NC(C)(C)C)cc4)nc3N)ccn2)C[C@@H]1C` [Compound 108], the Ki at JAK-2 enzyme and on JAK3 was less than 50 nM in each case.

Consider `CCCOC(=O)Nc1ccc(Nc2nc(N)n(-c3cc(N4CCCN(C(C)=O)CC4)ncn3)n2)cc1` [Compound 92], for which the Ki at JAK-2 enzyme and at JAK3 was less than 50 nM in each case.

With `CCOC(=O)Nc1ccc(Nc2nc(N)n(-c3cc(N4C[C@@H](C)N(C(C)=O)[C@@H](C)C4)ncn3)n2)cc1` [Compound 76], the Ki at JAK-2 enzyme and at JAK3 was less than 50 nM in each case.

Take `CC(=O)N1CCCN(c2cc(-n3nc(Nc4ccc(NC(=O)c5ccncc5)cc4)nc3N)ncn2)CC1` [Compound 28]: the Ki at JAK-2 enzyme and on JAK3 was less than 50 nM in each case.

Regarding `CCS(=O)(=O)N1CCN(c2ccc(Nc3nc(N)n(-c4ccnc(N5CCCN(C(=O)OC)CC5)c4)n3)cc2)CC1` [Compound 152], the Ki on JAK-2 enzyme and on JAK3 was 50 to 500 nM throughout.

On to `CCOC(=O)N1CCN(c2ccc(Nc3nc(N)n(-c4ccnc(N5CCCN(C(=O)OC(C)C)CC5)c4)n3)cc2)CC1` [Compound 151], for which the Ki at JAK-2 enzyme and at JAK3 was 50 to 500 nM each time.

Turning to `CC(=O)N1CCCN(c2cc(-n3nc(Nc4ccc(NC(=O)OCC(C)(C)C)cc4)nc3N)ncn2)CC1` [Compound 95], the Ki on JAK-2 enzyme and on JAK3 was less than 50 nM in each case.

Regarding `CCOC(=O)N1CCCN(c2cc(-n3nc(Nc4ccc(N5CCN(C(=O)OC(C)C)CC5)cc4)nc3N)ccn2)CC1` [Compound 157], the Ki on JAK-2 enzyme and at JAK3 was 50 to 500 nM each time.

Turning to `CC(=O)N1CCCN(c2cc(-n3nc(Nc4ccc(NC(=O)c5ccoc5)cc4)nc3N)ncn2)CC1` [Compound 29], the Ki at JAK-2 enzyme and at JAK3 was less than 50 nM each time.

For the molecule `CC(=O)Nc1ccc(Nc2nc(N)n(-c3cc(N4CCCN(C(C)=O)CC4)ncn3)n2)cc1` [Compound 11], the Ki at JAK-2 enzyme and at JAK3 was less than 50 nM throughout.

On to `COC(=O)N1CCCN(c2cc(-n3nc(Nc4ccc(N5CCN(C(=O)OC(C)C)CC5)cc4)nc3N)ccn2)CC1` [Compound 156], for which the Ki on JAK-2 enzyme and at JAK3 was 50 to 500 nM throughout.

For the molecule `CCN(CC)c1ccc(Nc2nc(N)n(-c3cc(N4CCCN(C(C)=O)CC4)ncn3)n2)cc1` [Compound 12], the Ki on JAK-2 enzyme and on JAK3 was less than 50 nM in each case.

Turning to `CC(=O)N1[C@H](C)CN(c2cc(-n3nc(Nc4ccc(NC(=O)Nc5ccc(C(F)(F)F)cc5)cc4)nc3N)ncn2)C[C@@H]1C` [Compound 74], the Ki at JAK-2 enzyme and on JAK3 was less than 50 nM in each case.

`CC(=O)N1CCCN(c2cc(-n3nc(Nc4ccc(N5CCN(C(=O)C(C)C)CC5)cc4)nc3N)ncn2)CC1` [Compound 44]: the inhibition constant (Ki) on JAK-2 enzyme and on JAK3 was less than 50 nM each time.

Take `CC(=O)N1[C@H](C)CN(c2cc(-n3nc(Nc4ccc(N(C)C(=O)OC(C)(C)C)cc4)nc3N)ncn2)C[C@@H]1C` [Compound 114]: the Ki at JAK-2 enzyme and on JAK3 was less than 50 nM in each case.

On to `Nc1nc(Nc2ccc(N3CCOCC3)cc2)nn1-c1cc(N2CCCCCC2)ncn1` [Compound 15], for which the Ki on JAK-2 enzyme and at JAK3 was less than 50 nM each time.

Turning to `CC(=O)N1[C@H](C)CN(c2cc(-n3nc(Nc4ccc(NC(=O)OCC(C)C)cc4)nc3N)ncn2)C[C@@H]1C` [Compound 79], the Ki on JAK-2 enzyme and on JAK3 was less than 50 nM in each case.

Turning to `CC(=O)N1[C@H](C)CN(c2cc(-n3nc(Nc4ccc(NC(=O)NC(C)C)cc4)nc3N)ccn2)C[C@@H]1C` [Compound 107], the Ki on JAK-2 enzyme and on JAK3 was less than 50 nM each time.

As for `CCOC(=O)Nc1ccc(Nc2nc(N)n(-c3cc(N4CCCN(C(C)=O)CC4)ncn3)n2)cc1` [Compound 91], the Ki at JAK-2 enzyme and on JAK3 was less than 50 nM each time.

Take `CCCOC(=O)N1CCN(c2ccc(Nc3nc(N)n(-c4ccnc(N5C[C@@H](C)N(C(C)=O)[C@@H](C)C5)c4)n3)cc2)CC1` [Compound 139]: the Ki at JAK-2 enzyme and at JAK3 was less than 50 nM each time.

Regarding `CS(=O)(=O)N1CCCN(c2cc(-n3nc(Nc4ccc(N5CCOCC5)cc4)nc3N)ncn2)CC1` [Compound 7], the Ki at JAK-2 enzyme and on JAK3 was less than 50 nM each time.

In the case of `CCOC(=O)N1CCN(c2ccc(Nc3nc(N)n(-c4cc(N5C[C@@H](C)N(C(C)=O)[C@@H](C)C5)ncn4)n3)cc2)CC1` [Compound 54], the inhibition constant (Ki) at JAK-2 enzyme and at JAK3 was less than 50 nM in each case.

On to `CC(=O)N1CCCN(c2cc(-n3nc(Nc4ccc(NC(=O)OC(C)C)cc4)nc3N)ncn2)CC1` [Compound 93], for which the Ki on JAK-2 enzyme and on JAK3 was less than 50 nM each time.

Take `CC(=O)N1CCCN(c2cc(-n3nc(Nc4ccc(N(C)C(=O)OC(C)C)cc4)nc3N)ncn2)CC1` [Compound 130]: the Ki on JAK-2 enzyme and at JAK3 was less than 50 nM in each case.

Turning to `CC(=O)N1[C@H](C)CN(c2cc(-n3nc(Nc4ccc(N5CCN(C(=O)OC(C)(C)C)CC5)cc4)nc3N)ncn2)C[C@@H]1C` [Compound 52], the Ki at JAK-2 enzyme and on JAK3 was less than 50 nM each time.

These data come from US7329652B2, “Diaminotriazole compounds useful as protein kinase inhibitors” (Vertex Pharamaceuticals Incorporated, priority 2004, dated 2008).
